Assay results reported in PubChem BioAssay AID248 (DTP/NCI, 2004).
Values joined by “and” are separate entries in the source; they are usually repeats but may differ in a detail not shown here. Equal entries are not always repeated. Toxic doses and inconclusive results are not listed. Rule as the data show it: active = T/C of 150% or more; inactive = T/C below 125%.

Tested on: L1210 leukemia ip in BDF1 mice, survival T/C
Assay: NCI In Vivo Anticancer Drug Screen. Data for tumor model L1210 Leukemia (intraperitoneal) in B6D2F1 (BDF1) mice
Conditions: endpoint: mean survival time, higher = longer survival
How it was run: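 Ratio derived from survival: compound-dosed mice over vehicle-dosed mice, all bearing a transplantable tumor.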

[1] = dose: 100.0 mg/kg/injection, schedule: Q01DX009 (ip), vehicle: saline with Tween-80
[2] = dose: 100.0 mg/kg/injection, schedule: Q04DX002 (ip), vehicle: saline with Tween-80
[3] = dose: 100.0 mg/kg/injection, schedule: Q04DX003 (ip), vehicle: saline with Tween-80
[4] = dose: 200.0 mg/kg/injection, schedule: Q01DX009 (ip), vehicle: saline with Tween-80
[5] = dose: 200.0 mg/kg/injection, schedule: Q04DX002 (ip), vehicle: saline with Tween-80
[6] = dose: 200.0 mg/kg/injection, schedule: Q04DX003 (ip), vehicle: saline with Tween-80
[7] = dose: 400.0 mg/kg/injection, schedule: Q04DX002 (ip), vehicle: saline with Tween-80
[8] = dose: 400.0 mg/kg/injection, schedule: Q01DX009 (ip), vehicle: saline with Tween-80
[9] = dose: 400.0 mg/kg/injection, schedule: Q04DX003 (ip), vehicle: saline with Tween-80
[10] = dose: 100.0 mg/kg/injection, schedule: Q01DX001 (ip), vehicle: saline
[11] = dose: 200.0 mg/kg/injection, schedule: Q01DX001 (ip), vehicle: saline
[12] = dose: 100.0 mg/kg/injection, schedule: Q04DX002 (ip), vehicle: Klucel (hydroxypropylcellulose) (HPC)
[13] = dose: 200.0 mg/kg/injection, schedule: Q04DX002 (ip), vehicle: Klucel (hydroxypropylcellulose) (HPC)
[14] = dose: 100.0 mg/kg/injection, schedule: Q04DX003 (ip), vehicle: saline
[15] = dose: 200.0 mg/kg/injection, schedule: Q04DX003 (ip), vehicle: saline
[16] = dose: 400.0 mg/kg/injection, schedule: Q04DX003 (ip), vehicle: saline
[17] = dose: 100.0 mg/kg/injection, schedule: Q01DX009 (ip), vehicle: saline
[18] = dose: 200.0 mg/kg/injection, schedule: Q01DX009 (ip), vehicle: saline
[19] = dose: 400.0 mg/kg/injection, schedule: Q01DX001 (ip), vehicle: saline
[20] = dose: 100.0 mg/kg/injection, schedule: Q01DX009 (ip), vehicle: Klucel (hydroxypropylcellulose) (HPC)
[21] = dose: 200.0 mg/kg/injection, schedule: Q01DX009 (ip), vehicle: Klucel (hydroxypropylcellulose) (HPC)
[22] = dose: 100.0 mg/kg/injection, schedule: Q01DX001 (ip), vehicle: Klucel (hydroxypropylcellulose) (HPC)
[23] = dose: 200.0 mg/kg/injection, schedule: Q01DX001 (ip), vehicle: Klucel (hydroxypropylcellulose) (HPC)
[24] = dose: 400.0 mg/kg/injection, schedule: Q01DX001 (ip), vehicle: Klucel (hydroxypropylcellulose) (HPC)
[25] = dose: 100.0 mg/kg/injection, schedule: Q04DX003 (ip), vehicle: Klucel (hydroxypropylcellulose) (HPC)
[26] = dose: 200.0 mg/kg/injection, schedule: Q04DX003 (ip), vehicle: Klucel (hydroxypropylcellulose) (HPC)
[27] = dose: 400.0 mg/kg/injection, schedule: Q01DX009 (ip), vehicle: Klucel (hydroxypropylcellulose) (HPC)
[28] = dose: 400.0 mg/kg/injection, schedule: Q04DX003 (ip), vehicle: Klucel (hydroxypropylcellulose) (HPC)
[29] = dose: 50.0 mg/kg/injection, schedule: Q04DX003 (ip), vehicle: Klucel (hydroxypropylcellulose) (HPC)

Measured: T/C

CSc1ccc(OC(=O)Nc2cc(Cl)ccc2C)cc1
inactive: dose: 100.0 mg/kg/injection, schedule: Q01DX001 (ip), vehicle: saline with Tween-80 98 % of control | [1] 95 % of control and 98 % of control | [2] 97 % of control | [3] 96 % of control | dose: 200.0 mg/kg/injection, schedule: Q01DX001 (ip), vehicle: saline with Tween-80 96 % of control | [4] 96 % of control and 103 % of control | [5] 94 % of control and 101 % of control | [6] 98 % of control | dose: 400.0 mg/kg/injection, schedule: Q01DX001 (ip), vehicle: saline with Tween-80 93 % of control | [7] 94 % of control and 105 % of control

CCO/C=C(\C#N)C(=O)O
inactive: [1] 95 % of control | [3] 98 % of control | [4] 98 % of control | [6] 104 % of control | [8] 102 % of control | [9] 100 % of control

Cc1ccc(O)c(C(c2cc(S(=O)(=O)O)c(O)cc2C)N2CN(C(c3cc(S(=O)(=O)O)c(O)cc3C)c3cc(C)ccc3O)C2=O)c1 (stereo not drawn)
inactive: [2] 101 % of control | [5] 93 % of control

O=C/C=C/c1cc(Cl)ccc1O
inactive: [10] 108 % of control | [11] 103 % of control

CC1(C)CC(=O)C2C(C1)Nc1ccccc1NC2c1cccc([N+](=O)[O-])c1 (stereo not drawn)
inactive: [12] 109 % of control | [13] 103 % of control

Cc1nc(N)[nH]c(=O)c1CCCCCN
inactive: [14] 101 % of control | [15] 106 % of control | [16] 100 % of control

O=C(OC1CC2CC=CC21)c1ccc([N+](=O)[O-])cc1 (stereo not drawn)
inactive: [3] 96 % of control | [6] 98 % of control | [9] 94 % of control

CCOC1NC(C)(C)CO1 (stereo not drawn)
inactive: [17] 101 % of control | [14] 115 % of control | [18] 101 % of control | [15] 97 % of control | dose: 400.0 mg/kg/injection, schedule: Q01DX009 (ip), vehicle: saline 97 % of control | [16] 121 % of control

O=c1[nH]c2cc3ccccc3cc2c2ccccc12
inactive: [10] 109 % of control | [11] 95 % of control | [19] 100 % of control

Oc1c(-c2ccccc2)n[nH]c1-c1ccccc1
inactive: dose: 50.0 mg/kg/injection, schedule: Q01DX009 (ip), vehicle: Klucel (hydroxypropylcellulose) (HPC) 98 % of control | [20] 98 % of control | [21] 94 % of control

CCNC(=O)Nc1ccccc1
inactive: [12] 93 % of control | [13] 96 % of control

CN1CCC(OC(c2ccccc2)c2ccccc2)CC1
inactive: dose: 20.0 mg/kg/injection, schedule: Q01DX009 (ip), vehicle: saline 107 % of control | dose: 20.0 mg/kg/injection, schedule: Q04DX003 (ip), vehicle: saline 108 % of control | dose: 40.0 mg/kg/injection, schedule: Q01DX009 (ip), vehicle: saline 113 % of control | dose: 40.0 mg/kg/injection, schedule: Q04DX003 (ip), vehicle: saline 105 % of control | dose: 80.0 mg/kg/injection, schedule: Q04DX003 (ip), vehicle: saline 95 % of control

NC(=O)/C(=C\c1ccc([N+](=O)[O-])o1)c1ccccc1
inactive: [22] 96 % of control | [23] 93 % of control | [24] 96 % of control

CC(C)(CCN(CC(=O)O)CC(=O)O)[N+](=O)[O-]
inactive: [10] 112 % of control | [11] 96 % of control | [19] 102 % of control

[O-]/[N+](C/[N+]([O-])=N\OCCCl)=N\OCCCl
inactive: [22] 91 % of control | [23] 91 % of control | [24] 91 % of control

N=C(N=C(N)N)N1CCOCC1
inactive: [1] 101 % of control | [3] 105 % of control | [4] 98 % of control | [6] 112 % of control | [8] 103 % of control | [9] 104 % of control

[CH3][Sn]([c]1ccccc1)([c]1ccccc1)[c]1ccccc1
inactive: [2] 91 % of control | [5] 95 % of control | [7] 103 % of control

c1ccc(-c2nc3ccccc3o2)cc1
inactive: [20] 92 % of control | [25] 92 % of control | [21] 97 % of control | [26] 95 % of control | [27] 92 % of control | [28] 103 % of control

Cc1ccc(S(=O)(=O)Nc2ccc(C#N)c3ccccc23)cc1
inactive: [1] 92 % of control | [3] 90 % of control | [4] 89 % of control | [6] 95 % of control | [8] 89 % of control | [9] 87 % of control

O=C(OCC1OC(n2c(=O)[nH]c3scnc3c2=O)C(OC(=O)c2ccccc2)C1OC(=O)c1ccccc1)c1ccccc1 (stereo not drawn)
inactive: dose: 100.0 mg/kg/injection, schedule: Q01DX005 (ip), vehicle: saline 93 % of control | dose: 200.0 mg/kg/injection, schedule: Q01DX005 (ip), vehicle: saline 86 % of control

CCCCCCCCCCCCSCCOC(=O)C1C2CCC(O2)C1C(=O)O (stereo not drawn)
inactive: dose: 12.5 mg/kg/injection, schedule: Q04DX003 (ip), vehicle: Klucel (hydroxypropylcellulose) (HPC) 96 % of control | dose: 25.0 mg/kg/injection, schedule: Q04DX003 (ip), vehicle: Klucel (hydroxypropylcellulose) (HPC) 100 % of control | [29] 90 % of control

O=[N+]([O-])c1nc2ccccc2[nH]1
inactive: dose: 100.0 mg/kg/injection, schedule: Q01DX001 (ip), vehicle: other 98 % of control

Cc1[nH]c(=O)[nH]c(=O)c1/C=C/C(=O)NC(CO)CC(C)C (stereo not drawn)
inactive: dose: 12.5 mg/kg/injection, schedule: Q01DX009 (ip), vehicle: saline 98 % of control | dose: 25.0 mg/kg/injection, schedule: Q01DX009 (ip), vehicle: saline 102 % of control and 114 % of control | dose: 50.0 mg/kg/injection, schedule: Q01DX009 (ip), vehicle: saline 98 % of control | [17] 107 % of control and 108 % of control | [18] 101 % of control | dose: 300.0 mg/kg/injection, schedule: Q01DX009 (ip), vehicle: saline 114 % of control

Cc1ccc(S(=O)(=O)OCCCCCCCCCCCCCCOS(=O)(=O)c2ccc(C)cc2)cc1
inactive: [20] 97 % of control | [25] 97 % of control | [21] 98 % of control | [26] 96 % of control | [27] 106 % of control | [28] 92 % of control

CC(=S)c1ccccc1
inactive: [29] 102 % of control | [25] 107 % of control | [26] 92 % of control | [28] 97 % of control

CCN(CC)C(=S)[S][Sb]([c]1ccccc1)[c]1ccccc1
inactive: dose: 100.0 mg/kg/injection, schedule: Q01DX001 (ip), vehicle: steriod suspending solution 110 % of control

CCOC(=O)c1ccccc1COc1ccc([N+](=O)[O-])cc1Cl
inactive: [20] 93 % of control | [21] 93 % of control | [27] 88 % of control

CN(N=O)C(=O)NCCOC(=O)N(C)N=O
inactive: dose: 6.25 mg/kg/injection, schedule: Q01DX Z (ip), vehicle: carboxymethylcellulose (CMC) 124 % of control | dose: 12.5 mg/kg/injection, schedule: Q01DX Z (ip), vehicle: carboxymethylcellulose (CMC) 124 % of control

CC(C)(C)c1ccc(/C=[N+](\[O-])C(C)(C)C)c(C(C)(C)C)c1O
inactive: dose: 50.0 mg/kg/injection, schedule: Q04DX002 (ip), vehicle: saline with Tween-80 102 % of control | [2] 98 % of control | [5] 102 % of control | [7] 95 % of control

CNc1nc2c(=O)[nH]c(N)nc2n1C1OC(CO)C(O)C1O (stereo not drawn)
inactive: dose: 50.0 mg/kg/injection, schedule: Q01DX001 (ip), vehicle: carboxymethylcellulose (CMC) 101 % of control | dose: 100.0 mg/kg/injection, schedule: Q01DX001 (ip), vehicle: carboxymethylcellulose (CMC) 104 % of control | dose: 200.0 mg/kg/injection, schedule: Q01DX001 (ip), vehicle: carboxymethylcellulose (CMC) 95 % of control | dose: 400.0 mg/kg/injection, schedule: Q01DX001 (ip), vehicle: carboxymethylcellulose (CMC) 89 % of control
